Data: US20190119282A1, “IMIDAZOPYRIDAZINES USEFUL AS INHIBITORS OF THE PAR-2 SIGNALING PATHWAY” (Vertex Pharmaceuticals Incorporated, priority 2013, published 2019)
Marks after values point to notes of the source that are not given here.

Columns and labels:
[1] = target: T1, PAR2 (HT-29 cells, SLIGKV activation) (Homo sapiens, UniProt P55085); assay: Ca FLIPR TETRA assay, ANTAGONIST mode, stimulation with 8 μM SLIGKV; assay type: cell-based; conditions: HT-29 cells, antagonist mode, stimulation with 8 μM SLIGKV
T1 construct: host or cells: HT-29 cells
T1 sequence (P55085 26-397): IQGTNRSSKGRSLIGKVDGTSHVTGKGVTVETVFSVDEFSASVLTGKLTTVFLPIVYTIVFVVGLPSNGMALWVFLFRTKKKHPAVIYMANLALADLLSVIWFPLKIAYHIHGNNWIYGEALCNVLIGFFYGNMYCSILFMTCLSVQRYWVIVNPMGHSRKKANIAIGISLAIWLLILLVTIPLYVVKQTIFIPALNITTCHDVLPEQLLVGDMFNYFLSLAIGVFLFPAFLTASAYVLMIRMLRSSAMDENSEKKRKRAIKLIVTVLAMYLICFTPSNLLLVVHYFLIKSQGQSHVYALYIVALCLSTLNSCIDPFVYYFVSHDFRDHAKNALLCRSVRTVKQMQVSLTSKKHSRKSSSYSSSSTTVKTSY
Method in brief: (§1)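 Antagonist-mode FLIPR Tetra Ca2+ readout: after 30 min r.t. compound pre-incubation, HT-29 cells are challenged with trypsin (3.1 U/mL final), SLIGKV (8 μM), thrombin (1 U/mL) or UTP (0.6 μM). Cells were plated overnight in 1% FBS medium and dye-loaded with Calcium 5; an initial read checks compound agonism.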

[2] = target: T2, PAR2 (HT-29 cells, trypsin activation) (Homo sapiens, UniProt P55085); assay: Ca FLIPR TETRA assay, ANTAGONIST mode, stimulation with 3.1 U/mL trypsin; assay type: cell-based; conditions: HT-29 cells, antagonist mode, stimulation with 3.1 U/mL trypsin
T2 construct: host or cells: HT-29 cells
T2 sequence (P55085 26-397): T1 sequence (P55085 26-397)
Method in brief: as §1

[3] = system: Thrombin-stimulated Ca2+ response in HT-29 cells; assay: Ca FLIPR TETRA assay, ANTAGONIST mode, stimulation with 1 U/mL Thrombin; assay type: cell-based, human; conditions: Homo sapiens; HT-29 cells, antagonist mode, stimulation with 1 U/mL Thrombin
Method in brief: as §1

[4] = system: UTP-stimulated Ca2+ response in HT-29 cells; assay: Ca FLIPR TETRA assay, ANTAGONIST mode, stimulation with 0.6 μM UTP; assay type: cell-based, human; conditions: Homo sapiens; HT-29 cells, antagonist mode, stimulation with 0.6 μM UTP
Method in brief: as §1

[5] = In vivo rat pharmacokinetics (intravenous and oral); conditions: plasma; for clearance: intravenous 0.5 to 1 mg/kg, read-out: Clp; for Vd: intravenous, read-out: Vss; for bioavailability: oral by gavage; for half-life: read-out: T ½ (converted)
Procedure: Example 61: Protocol for Testing PAR2 Compounds In Vivo Rat Pharmacokinetics Experiments
Compounds delivered by intravenous route were formulated using a solution formulation consisting of 5% N-methylpyrrolidone 10% Vitamin E-TPGS and 85% water (v/v/) or a solution formulation consisting of 25% N-methylpyrrolidone 35% polyethylene glycol 400 and 40% water (v/v/). Intravenous formulations were administered by a bolus injection (over approximately 10 seconds) using a hypodermic needle attaches to a syringe (tail vein). The dose volume was varied from 1 to 2 mL/kg and the dose was varied from 0.5 to 1 mg/kg. Compounds delivered orally were formulated as a solution formulation consisting of 5% N-methylpyrrolidone 10% Vitamin E-TPGS and 85% water (v/v/) or as fine suspension using a cellulose derivative suspending agent with or without the addition of a wetting agent/surfactant. Milling of large particles was performed as needed to reduce particle size using focused electroacoustic milling, homogenization or low energy media milling. A spray-dried solid dispersion was prepared for key compounds using 1:1 combination with cellulose derivatives. Test compounds were administered orally by gavage using a gavage plastic needle attached to a syringe. The dose volume was varied from 5 to 10 mL/kg and the dose was varied from 1 to 600 mg/kg.
Rats were bled by venipuncture (jugular vein) and the samples were collected into tubes containing K3EDTA. The tubes were placed on wet ice until processed. The samples were centrifuged for approximately 10 minutes (at approximately 4° C.) within approximately 30 minutes of collection to prepare plasma or diluted in citrate buffer (1:3) and stored frozen (approximately −30° C.). Thawed plasma or whole blood samples were extracted by protein precipitation using an organic solvent followed by centrifugation. The supernatants were separated by high-performance liquid chromatography coupled to mass spectrometry detection. A calibration curve was prepared using reference standard compounds spiked into either blank plasma or whole blood matrices and extracted similarly to unknown samples. Pharmacokinetic parameters were calculated using non-compartmental analysis.

[6] = system: carrageenan-induced paw edema; assay: Rat carrageenan-induced paw edema model; assay type: in vivo, Sprague Dawley rats; conditions: given before carrageenan challenge
Procedure: (§2) Male Sprague Dawley rats and BALB/c mice were housed in groups in a temperature controlled room and were acclimatized in the animal facility for at least three days prior to use. Experiments were performed during the light phase of the cycle. Animals have food and water ad libitum.
Example 63: Rat Carrageenan-Induced Paw Edema Model
Peripheral inflammation was induced by intra-plantar administration of 100 ul of a 1% w/volume (in saline) carrageenan solution under isoflurane anesthesia. The degree of swelling was assessed using the plethysmometer at 2-3-4-5-6 h after carrageenan injection. Test compound or vehicle (0.5% MC/0.1% SDS) was systemically administered at the indicated doses in a volume of 5 mL/kg either I-3 hour before carrageenan challenge (Table 9) or 2 hours post carrageenan challenge (Table 10).
(§3) Data are expressed as the mean % effect. Statistical significance was assessed using t-test for comparison between naive and inflamed rats, and one-way ANOVA followed by post-hoc comparison test for overall drug effectiveness. A difference between groups is considered significant with a p value of <0.05. *, p<0.05; **, p<0.01; ***, p<0.001 vs. vehicle.

[7] = system: tryptase-induced mechanical hypersensitivity; assay: Rat tryptase-induced mechanical hypersensitivity model; assay type: in vivo, Sprague Dawley rats; conditions: for % inhibition of tryptase-induced nociception: given 3-18 h before the tryptase challenge; for % inhibition of an established tryptase-induced nociception: given 30 minutes post tryptase challenge
Procedure: as §2
Example 64: Rat Tryptase-Induced Mechanical Hypersensitivity Model
Peripheral sensitization was induced by intra-dermal administration of 500 ng of tryptase in a volume of 10 ul PBS under isoflurane anesthesia. Rats were then placed on a wire mesh grid in separate compartments and allowed to acclimatize before testing. Mechanical hypersensitivity was assessed 30 min after tryptase injection using calibrated von Frey filaments applied perpendicular to the plantar surface of the affected paw using the up-and-down method. Test compounds or vehicle (0.5% MC/0.1% SDS) were systemically administered at doses indicated in a volume of 5 mL/kg 3-18 h before the tryptase challenge (Table 11) or 30 minutes post tryptase challenge (Table 12).
as §3

SMILES	IC50 [1] [nM]	IC50 [2] [nM]	IC50 [3] [nM]	IC50 [4] [nM]	clearance [5] [mL/min/kg]	Vd [5] [L/kg]	bioavailability [5] [%]	half-life [5] [h]	% inhibition of carrageenan induced paw edema ([6]; dose 20 mg/kg)	other results
CC(C)(C)c1cc(-c2ccc(F)cc2)nn2cc(C(=O)N3CCN(C(=O)C4CC(O)(C(F)(F)F)C4)CC3(C)C)nc12 (centres unmarked) [Compound I-199]	0.1	0.2	> 1000	> 1000	3.2	4.2	67	18.1	52*** %	% inhibition of carrageenan induced paw edema ([6]; dose 7.5 mg/kg): 14%
CC(C)(C)c1cc(-c2ccc(F)cc2)nn2cc(C(=O)N3CCN(C(=O)c4ccn[nH]4)CC3(C)C)nc12 [Compound I-201]	0.7	0.9	370	560	10.9	3.3	55	4.3	60*** %	% inhibition of carrageenan induced paw edema ([6]; dose 5 mg/kg): 55** %; % inhibition of tryptase-induced nociception ([7]; dose 5 mg/kg): 52** %; % inhibition of tryptase-induced nociception ([7]; dose 15 mg/kg): 65*** %
CC(C)(C)c1cc(-c2ccc(F)cc2)nn2cc(C(=O)N3CCN(C(=O)c4c[nH]cn4)CC3(C)C)nc12 [Compound I-232]	1	1.4	890	900	16.9	3.3	75	2.5		% inhibition of carrageenan induced paw edema ([6]; dose 10 mg/kg): 19* %
Cc1cc(-c2cc(C(C)C)c3nc(C(=O)N4CCNC(=O)C4(C)C)cn3n2)ccc1F [Compound I-244, 4-[6-(4-fluoro-3-methyl-phenyl)-8-isopropyl-imidazo[1,2-b]pyridazine-2-carbonyl]-3,3-dimethyl-piperazin-2-one]	7.5	10.2	3750	3650	4.8	1.6	70	5.1	67*** %	% inhibition of carrageenan induced paw edema ([6]; dose 2 mg/kg): 42** %; % inhibition of carrageenan induced paw edema ([6]; dose 6 mg/kg): 51** %; % inhibition of an established tryptase-induced nociception ([7]; dose 2 mg/kg): 21* %; % inhibition of an established tryptase-induced nociception ([7]; dose 6 mg/kg): 43* %; % inhibition of an established tryptase-induced nociception ([7]; dose 20 mg/kg): 48* %
CC(C)(C)c1cc(-c2ccc(C(F)(F)F)cc2)nn2cc(C(=O)N3CCNC(=O)C3(C)C)nc12 [Compound I-283, 4-[8-tert-butyl-6-[4-(trifluoromethyl)phenyl]imidazo[1,2-b]pyridazine-2-carbonyl]-3,3-dimethyl-piperazin-2-one]	2.2	2	> 1000	> 1000	1.07	6.82	76	77.9	19* %	
CC(C)(C)c1cc(-c2ccc(Cl)cc2)nn2cc(C(=O)N3CCN(C(=O)[C@H]4C[C@@](C)(O)C4)CC3(C)C)nc12 [Compound I-421]	0.3	0.2	> 1000	> 1000	6.15	3.07	189	9.62		% inhibition of carrageenan induced paw edema ([6]; dose 1 mg/kg): 11%; % inhibition of carrageenan induced paw edema ([6]; dose 10 mg/kg): −32** %
Cc1nc(C(=O)N2CCN(C(=O)c3cn4nc(-c5ccc(Cl)cc5)cc(C(C)(C)C)c4n3)C(C)(C)C2)n[nH]1 [Compound I-436, [8-tert-butyl-6-(4-chlorophenyl)imidazo[1,2-b]pyridazin-2-yl]-[2,2-dimethyl-4-(5-methyl-1H-1,2,4-triazole-3-carbonyl)piperazin-1-yl]methanone]	0.3	0.4	11000	3600	4.21	2.05	77	7.5		% inhibition of carrageenan induced paw edema ([6]; dose 1 mg/kg): −17* %; % inhibition of carrageenan induced paw edema ([6]; dose 30 mg/kg): 36** %
Cc1nnc(C(=O)N2CCN(C(=O)c3cn4nc(C5CCC(F)(F)CC5)cc(C(C)(C)C)c4n3)C(C)(C)C2)[nH]1 [Compound I-448, [8-tert-butyl-6-(4,4-difluorocyclohexyl)imidazo[1,2-b]pyridazin-2-yl]-[2,2-dimethyl-4-(5-methyl-4H-1,2,4-triazole-3-carbonyl)piperazin-1-yl]methanone]	6.9	11.4	17500	14500	6.44	1.84	87	5.14	15%	
